Substitutions are numbered along the chain they refer to. Structures can show the parent of a compound that is named as a salt.
Experiments:
[1] = target: T1, wild type androgen receptor (AR) (Homo sapiens, UniProt P10275); assay: AR-binding inhibition test (wild type); settings: read-out: Inhibition rate (%) at 100 nM Wild type
T1 sequence (P10275 1-920): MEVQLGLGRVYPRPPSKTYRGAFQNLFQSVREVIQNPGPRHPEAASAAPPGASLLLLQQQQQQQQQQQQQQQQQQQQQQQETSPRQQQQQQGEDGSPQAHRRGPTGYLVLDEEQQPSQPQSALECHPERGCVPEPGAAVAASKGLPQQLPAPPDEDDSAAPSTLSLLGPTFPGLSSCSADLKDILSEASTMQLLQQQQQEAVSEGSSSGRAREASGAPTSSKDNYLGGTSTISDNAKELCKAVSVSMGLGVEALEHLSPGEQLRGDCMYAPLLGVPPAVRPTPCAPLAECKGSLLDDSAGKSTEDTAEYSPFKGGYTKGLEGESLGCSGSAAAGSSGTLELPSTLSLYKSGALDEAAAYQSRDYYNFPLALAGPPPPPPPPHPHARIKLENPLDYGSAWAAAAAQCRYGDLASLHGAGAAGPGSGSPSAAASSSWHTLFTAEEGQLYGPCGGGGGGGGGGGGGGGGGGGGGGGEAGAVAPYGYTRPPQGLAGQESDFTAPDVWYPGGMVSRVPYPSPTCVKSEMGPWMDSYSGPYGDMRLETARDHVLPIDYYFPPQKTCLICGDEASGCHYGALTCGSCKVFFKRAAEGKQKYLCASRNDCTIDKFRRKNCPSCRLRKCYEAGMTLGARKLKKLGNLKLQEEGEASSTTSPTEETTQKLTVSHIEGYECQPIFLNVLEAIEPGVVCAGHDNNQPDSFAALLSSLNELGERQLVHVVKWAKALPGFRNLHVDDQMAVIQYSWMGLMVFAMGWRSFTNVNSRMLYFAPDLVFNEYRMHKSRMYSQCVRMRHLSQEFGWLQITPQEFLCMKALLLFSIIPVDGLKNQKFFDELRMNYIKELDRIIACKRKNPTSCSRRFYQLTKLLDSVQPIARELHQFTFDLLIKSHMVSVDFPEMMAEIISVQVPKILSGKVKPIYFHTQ

[2] = target: T2, LNCaP type mutant androgen receptor (AR) (Homo sapiens, UniProt P10275, T878A); assay: AR-binding inhibition test (LNCaP type); settings: read-out: Inhibition rate (%) at 100 nM LNCaP type
T2 sequence (P10275 1-920 T878A): T1 sequence (P10275 1-920) with T878A

[3] = test system: Human prostate cancer cell strain LNCaP-FGC; assay: cells; format: cell-based; settings: 72 h, read-out: Promotion rate (%) on PSA production at 100 nM

For `CO[C@@H]1C[C@H](C)N(c2ccc(C#N)c3ccccc23)C1`, the melting point was 88 to 89 °C.
`C[C@H]1[C@@H](C(N)=O)CCN1c1ccc(C#N)c2ccccc12` showed a melting point of 204 to 206 °C.
With `C[C@H]1[C@@H](C#N)CCN1c1ccc(C#N)c2ccccc12` the melting point was 143 to 145 °C.
In the case of `N#Cc1c(Br)cc(N2CCCCC2)c2ccccc12`, the melting point is reported as 179 to 180 °C.
In the case of `CN1C(=O)CCN1c1ccc(C#N)c2ccccc12`, the melting point is reported as 192 to 193 °C.
`COC[C@H]1CCCN1c1ccc(C#N)c2ccccc12` (as salt: hydrochloride) [Compound 45, 4-[(2R)-2-(methoxymethyl)pyrrolidin-1-yl]-1-naphthonitrile hydrochloride] showed a melting point of 88 to 89 °C.
In the case of `N#Cc1ccc(N2CCCC2)c2ccccc12` [Compound 1, 4-(1-pyrrolidinyl)-1-naphthonitrile], the inhibition at 0.1 µM [1] is reported as 88% and the inhibition at 0.1 µM [2] is reported as 78%.
For `N#Cc1ccc(N2CCCCC2)c2ccccc12` [Compound 3, 4-(1-piperidinyl)-1-naphthonitrile], the activation at 0.1 µM [3] was 90%, the inhibition at 0.1 µM [1] was 97% and the inhibition at 0.1 µM [2] was 97%.
In the case of `N#Cc1ccc(N2CCSCC2)c2ccccc12` [Compound 8, 4-(4-thiomorpholinyl)-1-naphthonitrile], the activation at 0.1 µM [3] is reported as 71%, the melting point is reported as 130 to 131 °C and the inhibition at 0.1 µM [1] is reported as 92%. For the same molecule, the inhibition at 0.1 µM [2] was 96%.
Molecule `N#Cc1ccc(N2CCCCCC2)c2ccccc12` [Compound 10, 4-(1-azepaneyl)-1-naphthonitrile] has an activation at 0.1 µM [3] of 75%, an inhibition at 0.1 µM [1] of 112% and an inhibition at 0.1 µM [2] of 144%.
`N#Cc1ccc(N2CCC(O)C2)c2ccccc12` (stereo not drawn) [Compound 18, 4-(3-hydroxy-1-pyrrolidinyl)-1-naphthonitrile] gave a melting point of 138 to 139 °C, an inhibition at 0.1 µM [1] of 96% and an inhibition at 0.1 µM [2] of 79%.
`N#Cc1ccc(N2CCCC(CO)C2)c2ccccc12` (stereo not drawn) [Compound 19, 4-[3-(hydroxymethyl)-1-piperidinyl]-1-naphthonitrile] gave an activation at 0.1 µM [3] of 70%, an inhibition at 0.1 µM [1] of 75% and an inhibition at 0.1 µM [2] of 91%.
Work on `COC[C@H]1CCCN1c1ccc(C#N)c2ccccc12` [Compound 45, 4-[(2R)-2-(methoxymethyl)pyrrolidin-1-yl]-1-naphthonitrile hydrochloride] yielded an inhibition at 0.1 µM [1] of 105% and an inhibition at 0.1 µM [2] of 110%.
In the case of `CC1CCCN1c1ccc(C#N)c2ccccc12` (stereo not drawn) [Compound 47, 4-(2-methylpyrrolidin-1-yl)-1-naphthonitrile hydrochloride], the activation at 0.1 µM [3] is reported as 88%, the inhibition at 0.1 µM [1] is reported as 116% and the inhibition at 0.1 µM [2] is reported as 116%.
Molecule `N#Cc1ccc(N2CCC(CO)C2)c2ccccc12` (stereo not drawn) [Compound 50, 4-[3-(hydroxymethyl)pyrrolidin-1-yl]-1-naphthonitrile hydrochloride] has an activation at 0.1 µM [3] of 88%, an inhibition at 0.1 µM [1] of 91% and an inhibition at 0.1 µM [2] of 102%.
`CC1(CO)CCCN(c2ccc(C#N)c3ccccc23)C1` (stereo not drawn) [Compound 56, 4-[3-(hydroxymethyl)-3-methyl-1-piperidinyl]-1-naphthonitrile] gave an activation at 0.1 µM [3] of 96%, an inhibition at 0.1 µM [1] of 80% and an inhibition at 0.1 µM [2] of 91%.
`N#Cc1ccc(N2CCCCC2)c2ccsc12` [Compound 73, 4-(1-piperidinyl)-1-benzothiophene-7-carbonitrile] showed a melting point of 99 to 100 °C, an inhibition at 0.1 µM [1] of 95% and an inhibition at 0.1 µM [2] of 95%.
`CC1CCCN1c1ccc(C#N)c2sccc12` (stereo not drawn) [Compound 76, 4-(2-methyl-1-pyrrolidinyl)-1-benzothiophene-7-carbonitrile] showed an activation at 0.1 µM [3] of 85%, an inhibition at 0.1 µM [1] of 102% and an inhibition at 0.1 µM [2] of 97%.
For `C=C[C@H]1CCCN1c1ccc(C#N)c2ccccc12` [Compound 81, 4-[(2R)-2-vinyl-1-pyrrolidinyl]-1-naphthonitrile], the activation at 0.1 µM [3] was 98%, the inhibition at 0.1 µM [1] was 104% and the inhibition at 0.1 µM [2] was 100%.
Molecule `C=C[C@@H]1CCCN1c1ccc(C#N)c2ccccc12` [Compound 82, 4-[(2S)-2-vinyl-1-pyrrolidinyl]-1-naphthonitrile] has an inhibition at 0.1 µM [1] of 85% and an inhibition at 0.1 µM [2] of 94%.
For `CC[C@H]1CCCN1c1ccc(C#N)c2ccccc12` [Compound 83, 4-[(2S)-2-ethyl-1-pyrrolidinyl]-1-naphthonitrile], the activation at 0.1 µM [3] was 95%, the inhibition at 0.1 µM [1] was 95% and the inhibition at 0.1 µM [2] was 102%.
For `CC[C@@H]1CCCN1c1ccc(C#N)c2ccccc12` [Compound 84, 4-[(2R)-2-ethyl-1-pyrrolidinyl]-1-naphthonitrile], the inhibition at 0.1 µM [1] was 88% and the inhibition at 0.1 µM [2] was 93%.
`C[C@H]1CCCN1c1ccc(C#N)c2ccccc12` [Compound 85, 4-[(2S)-2-methyl-1-pyrrolidinyl]-1-naphthonitrile] gave an activation at 0.1 µM [3] of 92%, an inhibition at 0.1 µM [1] of 95% and an inhibition at 0.1 µM [2] of 99%.
`CC1CCCN1c1ccc(C#N)c2occc12` (stereo not drawn) [Compound 95, 4-(2-methyl-1-pyrrolidinyl)-1-benzofuran-7-carbonitrile] gave a melting point of 82 to 83 °C, an inhibition at 0.1 µM [1] of 92% and an inhibition at 0.1 µM [2] of 105%.
`N#Cc1ccc(N2CCC(F)C2)c2ccccc12` (stereo not drawn) [Compound 99, 4-(3-fluoro-1-pyrrolidinyl)-1-naphthonitrile] showed an activation at 0.1 µM [3] of 83%, an inhibition at 0.1 µM [1] of 98% and an inhibition at 0.1 µM [2] of 92%.
Molecule `C[C@H]1[C@@H](CO)CCN1c1ccc(C#N)c2ccccc12` [Compound 107, 4-[(2S,3S)-3-(hydroxymethyl)-2-methyl-1-pyrrolidinyl]-1-naphthonitrile] has an activation at 0.1 µM [3] of 95%, an inhibition at 0.1 µM [1] of 95% and an inhibition at 0.1 µM [2] of 93%.
For `C[C@H]1[C@H](O)CCN1c1ccc(C#N)c2ccccc12` [Compound 113, 4-[(2S,3R)-3-hydroxy-2-methyl-1-pyrrolidinyl]-1-naphthonitrile], the activation at 0.1 µM [3] was 88%, the inhibition at 0.1 µM [1] was 97% and the inhibition at 0.1 µM [2] was 98%.
`C[C@H]1[C@@H](O)CCN1c1ccc(C#N)c2ccccc12` [Compound 116, 4-[(2S,3S)-3-hydroxy-2-methyl-1-pyrrolidinyl]-1-naphthonitrile] showed an activation at 0.1 µM [3] of 84%, an inhibition at 0.1 µM [1] of 99% and an inhibition at 0.1 µM [2] of 94%.
In the case of `C[C@H]1[C@@H](O)CCN1c1ccc(C#N)c2sccc12` [Compound 118, 4-[(2S,3S)-3-hydroxy-2-methyl-1-pyrrolidinyl]-1-benzothiophene-7-carbonitrile], the activation at 0.1 µM [3] is reported as 88%, the inhibition at 0.1 µM [1] is reported as 96% and the inhibition at 0.1 µM [2] is reported as 95%.
Molecule `CO[C@@H]1CCN(c2ccc(C#N)c3ccccc23)[C@H]1C` [Compound 139, 4-[(2S,3R)-3-methoxy-2-methyl-1-pyrrolidinyl]-1-naphthonitrile] has an activation at 0.1 µM [3] of 73%, an inhibition at 0.1 µM [1] of 95% and an inhibition at 0.1 µM [2] of 99%.
With `N#Cc1ccc(N2CCC(CCO)C2)c2ccccc12` (stereo not drawn) [Compound 141, 4-[3-(2-hydroxyethyl)-1-pyrrolidinyl]-1-naphthonitrile] the activation at 0.1 µM [3] was 87%, the inhibition at 0.1 µM [1] was 96% and the inhibition at 0.1 µM [2] was 101%.
`CC(C)[C@H]1CCCN1c1ccc(C#N)c2ccccc12` [Compound 144, 4-[(2R)-2-isopropyl-1-pyrrolidinyl]-1-naphthonitrile] gave an activation at 0.1 µM [3] of 87%, an inhibition at 0.1 µM [1] of 103% and an inhibition at 0.1 µM [2] of 102%.
